The source of these data is patent US20050069887A1, “Dna synthesis promoters dna polymerase-associated factors and utilization thereof” (priority 2001, published 2005).

One test addresses T1, nPfu DNA polymerase (Pyrococcus furiosus, UniProt P61875).
T1 construct: α-Type Enzyme (Native Pfu); purchased STRATAGENE
T1 sequence (P61875 1-775): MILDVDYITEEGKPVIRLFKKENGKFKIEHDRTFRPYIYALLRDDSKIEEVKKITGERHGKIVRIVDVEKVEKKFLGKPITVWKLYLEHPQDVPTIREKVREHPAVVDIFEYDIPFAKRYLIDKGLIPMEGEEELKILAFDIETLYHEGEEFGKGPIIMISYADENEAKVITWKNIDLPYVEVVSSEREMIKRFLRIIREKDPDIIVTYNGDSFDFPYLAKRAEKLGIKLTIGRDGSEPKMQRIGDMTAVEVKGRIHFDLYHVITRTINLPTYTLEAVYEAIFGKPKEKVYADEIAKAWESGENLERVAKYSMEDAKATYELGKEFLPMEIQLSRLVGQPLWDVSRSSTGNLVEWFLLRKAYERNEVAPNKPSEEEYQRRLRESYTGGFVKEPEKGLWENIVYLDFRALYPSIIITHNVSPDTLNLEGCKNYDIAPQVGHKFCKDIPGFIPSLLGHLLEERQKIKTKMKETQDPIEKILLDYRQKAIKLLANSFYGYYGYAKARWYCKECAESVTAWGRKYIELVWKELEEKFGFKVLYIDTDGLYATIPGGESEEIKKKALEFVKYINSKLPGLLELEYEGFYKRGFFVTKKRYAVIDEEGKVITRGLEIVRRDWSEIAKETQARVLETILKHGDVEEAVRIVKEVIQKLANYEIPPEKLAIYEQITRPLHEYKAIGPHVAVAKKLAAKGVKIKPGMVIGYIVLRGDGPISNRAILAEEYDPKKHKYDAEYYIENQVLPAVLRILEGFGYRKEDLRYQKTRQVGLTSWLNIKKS
Put plainly: PCR using nPfu with oxalate ion and betaine (Example 2-2). It is filed as biochemical. Particulars: 2 mM potassium oxalate, FIG. 12. Here is the method:
Oxalate ion and betaine were investigated for their synergistic effectiveness in amplification of a target DNA which cannot be usually amplified by PCR using nPfu polymerase. Potassium oxalate was added to the PCR buffer (20 mM Tris-HCl(pH: 8.75), 10 mM KCl, 10 mM (NH4)2SO4, 2 mM MgSO41 0.1% Triton X-100, 100 μg/ml BSA) supplied with nPfu (STRATAGENE) to attain a final concentration of 2 mM. Also used were 0.2 mM dNTPs, 0.3 μM of a pair of primers of SEQ ID Nos:16 and 17, and 2.5 U nPfu DNA polymerase. 20 ng of genomic DNA derived from human cell line K562 was used as a template. This reaction mixture was subjected to PCR by using GeneAmp2400 (PE Applied Biosystems) to investigate the influence of varying the concentration of betaine added on the PCR results. The PCR conditions were as follows: 1 preliminary cycle of 94° C. for 2 minutes, and then 35 cycles of 94° C. for 15 seconds, 60° C. for 30 seconds and 68° C. for 8.5 minutes.

In test [1] the target is T2, KOD-plus DNA polymerase (Thermococcus kodakarensis, UniProt P77933, DEL407-766/DEL853-1389).
T2 construct: purchased Toyobo
In words: PCR using KOD-plus with oxalate ion and betaine (Example 2-3). The class given is biochemical, Thermococcus kodakaraensis KOD1. Particulars: 2 mM potassium oxalate, FIG. 13. The method, then: Oxalate ion and betaine were investigated for their synergistic effectiveness in amplification of a target DNA which cannot be amplified by normal PCR, using KOD-plus DNA polymerase, i.e. a hot start enzyme which is a mixture of KOD (α-type enzyme) and two kinds of KOD antibodies. Potassium oxalate was added to the PCR buffer supplied with KOD-plus (TOYOBO CO., LTD.) to attain a final concentration of 2 mM. Also used were 0.2 mM dNTPs and 0.3 μM of a pair of primers of SEQ ID NOs: 14 and 15. 20 ng of genomic DNA derived from human cell line K562 was used as a template. This reaction mixture was subjected to PCR by using GeneAmp2400 (PE Applied Biosystems) to investigate the influence of varying the concentration of betaine on the PCR results. The PCR conditions were as follows: 1 preliminary reaction of 94° C. for 2 minutes, and then 35 cycles of 94° C. for 15 seconds, 60° C. for 30 seconds and 68° C. for 8.5 minutes.

The subject of the next test is EX-Taq DNA polymerase. In words: PCR using EX-Taq with oxalate ion and betaine (Example 2-1). It is filed as biochemical. The settings on record: 2 mM potassium oxalate, 0.5 M betaine, FIG. 11. Here is the method: Oxalate ion and betaine were investigated for their synergistic effectiveness in amplification of a target DNA which cannot be usually amplified by PCR using EX-Taq DNA polymerase (TAKARA). Potassium oxalate was added to the PCR buffer attached to EX-Taq DNA polymerase to attain a final concentration of 2 mM. Also used were 0.2 mM dNTPs, 0.3 μM of a pair of primers consisting of the sequences of ID NOs:14 and 15 respectively, and 1.0 U EX-Taq DNA polymerase. 20 ng of genomic DNA derived from human cell line K562 was used as a template. This reaction mixture was subjected to PCR by using GeneAmp2400 (PE Applied Biosystems) to investigate the influence of varying the concentration of betaine added on the PCR results. The PCR conditions were as follows: 1preliminary reaction of 94° C. for 2 minutes, and then 35 cycles of 94° C. for 15 seconds, 60° C. for 30 seconds and 68° C. for 8.5 minutes.

The target in test [2] is T2, KOD-plus DNA polymerase. It is filed as biochemical, Thermococcus kodakaraensis KOD1. The settings on record: salt at 6 mM of ion equivalent, FIG. 9.
The target in test [3] is T2, KOD-plus DNA polymerase. It is filed as biochemical, Thermococcus kodakaraensis KOD1. The method, then: The effect produced by the addition of oxalate ion to a hot start enzyme was investigated using a hot start enzyme KOD-plus DNA polymerase containing KOD α-type enzyme) and two kinds of KOD antibodies. The PCR buffer supplied with KOD-plus (manufactured by Toyobo), 0.2 mM dNTPs and 0.3 μM of a primer pair of SEQ ID Nos:8 and 9 were used. PCR was performed using 2.5 U KOD-plus DNA polymerase and 20 ng of Genomic DNA derived from human cell line K562 as a template to investigate the influence of varying the concentration of oxalate ion added on the PCR results. The PCR conditions were as follows: 1 preliminary reaction of 94° C. for 2 minutes, and then 35 cycles of 94° C. for 15 seconds, 60° C. for 30 seconds and 68° C. for 8.5 minutes. The PCR was performed using GeneAmp2400 (PE Applied Biosystems).

T2 sequence (P77933 other isoform, or with tags, fused parts or gaps DEL407-766/DEL853-1389): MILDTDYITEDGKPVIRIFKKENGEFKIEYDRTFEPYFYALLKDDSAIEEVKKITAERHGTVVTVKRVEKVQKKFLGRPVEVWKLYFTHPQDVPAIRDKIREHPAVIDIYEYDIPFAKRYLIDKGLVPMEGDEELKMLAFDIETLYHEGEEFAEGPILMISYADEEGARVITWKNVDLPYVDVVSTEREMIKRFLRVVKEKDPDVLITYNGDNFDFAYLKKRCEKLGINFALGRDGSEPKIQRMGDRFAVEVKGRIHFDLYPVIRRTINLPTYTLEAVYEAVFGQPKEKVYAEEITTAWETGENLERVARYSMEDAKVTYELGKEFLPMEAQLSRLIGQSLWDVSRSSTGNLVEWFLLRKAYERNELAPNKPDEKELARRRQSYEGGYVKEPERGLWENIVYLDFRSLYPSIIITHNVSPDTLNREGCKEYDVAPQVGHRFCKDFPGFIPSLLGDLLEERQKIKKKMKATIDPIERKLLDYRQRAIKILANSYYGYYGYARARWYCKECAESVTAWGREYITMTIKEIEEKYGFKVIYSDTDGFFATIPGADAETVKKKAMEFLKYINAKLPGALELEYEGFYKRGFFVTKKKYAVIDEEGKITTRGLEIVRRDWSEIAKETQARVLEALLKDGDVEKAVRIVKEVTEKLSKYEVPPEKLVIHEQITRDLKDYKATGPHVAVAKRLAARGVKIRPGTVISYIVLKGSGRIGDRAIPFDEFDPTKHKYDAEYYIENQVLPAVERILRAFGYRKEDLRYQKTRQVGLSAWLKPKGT

As for `C[N+](C)(C)CC(=O)[O-]` [betaine, trimethylglycine], the “amplification of target DNA” value at nPfu DNA polymerase is listed as “amplification of the target DNA was observed”. On KOD-plus DNA polymerase [1], the “betaine concentration at which the amount of amplification was greatest” value is listed as 1.5 M and the “betaine concentration giving an increased amount of amplification of the target DNA” value lay in the range of 0.5 to 1.5 M. Also, the “amplification of target DNA” value with EX-Taq DNA polymerase was “an increase in amplification amount was observed”.
Regarding `O=C([O-])C(=O)[O-].[K+].[K+]` [potassium oxalate], the “amplification of target DNA (electrophoresis pattern)” value on KOD-plus DNA polymerase [2] is recorded as “Amplification was observed”. In addition, on KOD-plus DNA polymerase [3] (5 mM of potassium oxalate), the “amount of the target DNA amplified” value was “a decrease in the amount of the target DNA amplified was found”. Besides, the “optimal concentration of potassium oxalate” value at KOD-plus DNA polymerase [3] (FIG. 8) is “about 3 mM”. In addition, the “effect on extra bands and target amplification” value at KOD-plus DNA polymerase [3] (in the presence of potassium oxalate, FIG. 8) is “no extra bands were observed and only the target DNA was amplified”.
